Results: patent publication US20070255357A1, “NASAL DECO[…] MICROBES” (Ondine International, Ltd., priority 2006, published 2007)

Assays:
biofilms of MRSA = test: Photodisinfection of MRSA biofilms in vitro (methylene blue + Periowave laser); format: cell-based, Methicillin-resistant Staphylococcus aureus; settings: biofilm; for reduction of MRSA: at least 0.02 wt % methylene blue, laser about 665-675 nm for at least 15 seconds (at least 2.25 J/cm^2)
Text: (§1) Photodisinfection treatments using methods contemplated by the present invention have been tested against MRSA, Escherichia coli (E. coli), and Enterococcus fecalis (E. fecalis) in vitro and reached high levels of disinfection in within seconds to one minute. Photosensitizing composition comprising of methylene blue at various concentrations ranging from about 0.005 wt % to 0.1 wt % was applied to biofilms of MRSA, E. coli and E. fecalis for about ten seconds. These biofilms were then illuminated by a laser light system at a wavelength of about 665 nm to about 675 nm for a period from about 0 seconds to about 60 seconds (e.g., accumulated energy level of about 0 J/cm^2 to about 9 J/cm^2). The laser light system used was the Periowave™ system which includes a low-intensity laser with power at about 240 mW and the optical probe described in PCT Patent Publication No. WO2006115761.

MRSA biofilms = test: SEM evaluation of MRSA biofilms after photodisinfection; format: cell-based, Methicillin-resistant Staphylococcus aureus; settings: about 0.1 wt % methylene blue, about 10 s contact; about 665-675 nm for about 30 seconds, Periowave laser; FIG. 34 vs FIG. 33
Method: (§2) Biofilms heavily colonized with one to four layers of MRSA organisms were contacted with a photosensitizing composition comprising methylene blue at a concentration of about 0.1 wt % for about 10 seconds and then illuminated at a wavelength of about 665 nm to about 675 nm for a period from about 30 seconds using the Periowave™ laser. Thereafter, these biofilms and the controlled MRSA biofilms (e.g., no photodisinfection treatment) were incubated overnight in 0.9 wt % saline and then fixed in 10 wt % Formalin for scanning electron microscope (SEM) evaluation.

biofilms of E. coli = test: Photodisinfection of E. coli biofilms in vitro (methylene blue + Periowave laser); format: cell-based, Escherichia coli; settings: biofilm; for reduction of E. coli: at least 0.02 wt % methylene blue, laser about 665-675 nm for at least 15 seconds (at least 2.25 J/cm^2)
Text: as §1

biofilms of E. fecalis = test: Photodisinfection of E. fecalis biofilms in vitro (methylene blue + Periowave laser); format: cell-based, Enterococcus fecalis; settings: biofilm
Text: as §1

otitis externa [1] = test: Photodisinfection of otitis externa treatment site (Examples V to VII); format: in vivo
Method: A photosensitizing composition comprising of methylene blue at a concentration of about 0.1 wt % is applied to the otitis externa treatment site. Light at a wavelength range from about 650 nm to about 680 nm is applied to the photosensitizing composition located within the otitis externa treatment site for a period from about 6 minutes to about 10 minutes using a laser with power at about 80 mW. The otitis externa was ameliorated.
A photosensitizing composition comprising of methylene blue at a concentration range of from about 0.001 wt % to about 0.1 wt % is applied to the otitis externa treatment site. Light at a wavelength range from about 650 nm to about 680 nm is applied to the photosensitizing composition located within the treatment site for a period from about 1 minute to about 20 minutes using a laser with power at a range from about 50 mW to about 300 mW. The otitis externa was ameliorated.
A photosensitizing composition comprising of toluidine blue at a concentration range of from about 0.001% wt % to about 0.1 wt % is applied to the otitis externa treatment site. Light at a wavelength range from about 620 nm to about 650 nm is applied to the photosensitizing composition located within the otitis externa treatment site for a period from about 1 minute to about 20 minutes using a laser with power at a range from about 50 mW to about 300 mW. The otitis externa was ameliorated.
For Examples V to VII, it was shown that there is a general inverse relationship between (1) the photosensitizer concentration and (2) the photodisinfection treatment time and/or the amount of power required for the light source. For example, higher concentration of photosensitizer requires less treatment time and/or lower light source power. Conversely, lower concentration of photosensitizer requires longer treatment time and/or higher light source power. Also, less treatment time requires higher concentration of photosensitizer and/or higher light source power.

otitis externa [2] = test: Study on patients suffering otitis externa (photodisinfection); format: in vivo, human
Method: A study was conducted on patients suffering otitis externa. During the study, a photosensitizing composition comprising of methylene blue at a concentration of about 0.01 wt % was applied using a cotton swab to the treatment site as shown in FIG. 37. Thereafter and referring to FIGS. 38-39, light at a wavelength range from about 665 nm to about 675 nm was applied to the photosensitizing composition located within the treatment site 64 for a period from about 3 minutes to about 5 minutes (3-5 repetitive one minute cycles) using the Periowave™ laser light system.

E. coli biofilms = test: SEM evaluation of E. coli biofilms after photodisinfection; format: cell-based, Escherichia coli; settings: about 0.1 wt % methylene blue, about 10 s contact; about 665-675 nm for about 30 seconds, Periowave laser; FIG. 36 vs FIG. 35
Method: as §2, with “to three” for “to four”, “of Escherichia coli (E. coli)” for “of MRSA”, “controlled E. coli” for “controlled MRSA”, “incubated for three hours” for “incubated overnight”, “in 0.9%” for “in 0.9 wt %”, “in 10%” for “in 10 wt %”

[3] = methylene blue about 0.02-0.1 wt % and a low power laser (about 240 mW)

| SMILES | reduction of MRSA (biofilms of MRSA; about 10 s contact) | reduction of MRSA (biofilms of MRSA) | elimination of MRSA by photodisinfection (biofilms of MRSA; [3]) | reduction of MRSA in SEM photograph vs controlled biofilm (MRSA biofilms) | reduction of E. coli (biofilms of E. coli; about 10 s contact) | reduction of E. coli (biofilms of E. coli) | elimination of E. coli by photodisinfection (biofilms of E. coli; [3]) | reduction of E. fecalis (biofilms of E. fecalis; at least 0.02 wt % methylene blue, laser about 665-675 nm for at least 15 seconds (at least 2.25 J/cm^2)) | elimination of E. Fecalis by photodisinfection (biofilms of E. fecalis; [3]) | outcome of otitis externa (otitis externa [1]; Example V: about 0.1 wt % methylene blue, about 650-680 nm for about 6-10 minutes, laser about 80 mW) | outcome of otitis externa (otitis externa [1]; Example VI: about 0.001-0.1 wt % methylene blue, about 650-680 nm for about 1-20 minutes, laser about 50-300 mW) | outcome of severe otitis externa (otitis externa [2]; patients with severe otitis externa, about 2 to 5 additional treatments, same protocol, over about one to two weeks) | outcome of otitis externa (otitis externa [2]; patients, about 0.01 wt % methylene blue by cotton swab, about 665-675 nm for about 3-5 minutes, Periowave laser, many patients) | reduction of E. coli in SEM photograph vs controlled biofilm (E. coli biofilms) | outcome of otitis externa (otitis externa [1]; Example VII: about 0.001-0.1 wt % toluidine blue, about 620-650 nm for about 1-20 minutes, laser about 50-300 mW) |
| --- | --- | --- | --- | --- | --- | --- | --- | --- | --- | --- | --- | --- | --- | --- | --- |
| CN(C)c1ccc2nc3ccc(=[N+](C)C)cc-3sc2c1 [methylene blue] | at least three | over 90% | effectively eliminated | substantial reduction of MRSA | at least three | over 90% | effectively eliminated | over 90% | effectively eliminated | ameliorated | ameliorated | also ameliorated | ameliorated | substantial reduction of E. coli |  |
| Cc1cc2nc3ccc(N(C)C)cc3[s+]c2cc1N.[Cl-] [toluidine blue] |  |  |  |  |  |  |  |  |  |  |  |  |  |  | ameliorated |
